Results on four compounds are retold here after patent US20020049151A1, “Therapeutic approaches to diseases by suppression of the NURR subfamily of nuclear transcription factors” (priority 2000, published 2002).

In one test the test system is CRH mRNA. Description: RT-PCR of CRH mRNA in primary human synoviocytes. As to conditions: primary RA and PsA synoviocytes, 6 h; 10 ng/ml IL-1β, IL-6, TNF, 1 μM PGE2, MoCM; mean +/−SE. The format is cell-based. From the text:
To identify the origin of the cells that express CRH, the expression of CRH mRNA in isolated primary human synoviocyte cells was investigated. Synoviocytes are an important source and target cell for IL-1β, TNFα and PGE2 action within inflamed synovial tissue (Bucala et al., 1991). Moreover, these pro-inflammatory agents are important mediators in the pathogenesis of human synovial hyperplasia and cartilage destruction (MacNaul et aL., 1990). […] Representative examples of PCR products generated using synoviocytes maintained under normal conditions (Con), or exposed to 10 ng/ml IL-1β, IL-6, TNF, 1 μM PGE2, MoCM or 25 μM forskolin (FOR) for 6 h. Results were obtained from three separate experiments, using both RA and PsA cell lines. Values shown are the mean +/−SE. The symbol * indicates P<0.01 compared to control. PCR products generated were confirmed by Southern blot analysis using CDNA probes for human CRH and GAPDH.
The regulation of hypothalamic CRH gene expression by activation of adenylate cyclase/protein kinase A signaling pathway has previously been established (Guardiola-diaz et al., 1994). The ability of forskolin (FOR), an adenylate cyclase activating agent, was tested for stimulatory effects on CRH gene expression in primary synoviocytes. […] To determine regulatory signals of peripheral CRH expression the ability of pro-inflammatory agonists to regulate endogenous CRH MRNA was examined. […] Next, a comparison of the ability of individual pro-inflammatory mediators to induce CRH mRNA was performed. […] Levels of GAPDH mRNA remained relatively constant under all conditions tested (FIG. 1D).
Synovial tissue was treated for 4 h with 1 mg/ml collagenase (type I; Worthington Biochemical, Freehold, N.J.) in RPMI at 37° C. in 5% CO2. Dissociated cells were plated in RPMI supplemented with 10% fetal calf serum (GibcoBRL, Paisley, UK), penicillin (100 U/ml), streptomycin (100 U/ml) and fungizone (0.25 μg/ml). […] Twenty-four hours before transfection, 1×10^6 synoviocyte cells were plated in 25 cm^2 dishes and allowed to attach. […] Chloramphenicol acetyl transferase (CAT) levels were measured using a CAT ELISA (Boehringer Mannheim, Germany). Protein concentrations were determined by the Bradford assay (BioRad, Richmond, Calif.). […]

The next test deals with human CRH promoter. Description: hCRH-CAT reporter, transient transfection in primary human synoviocytes. The format is cell-based. The note with it: -666/+111 hCRH-CAT; RA and PsA synoviocytes; 10 ng/ml IL-1β, IL-6, TNFα, 1 μM PGE2, MoCM; 12 h. Here is the method: To determine whether inflammatory mediators are capable of regulating the expression of the human CRH promoter a reporter construct was generated by cloning the proximal promoter region (−666/+111) (SEQ ID NO: 143) of the human CRH gene into the promoterless pBL3-chloramphenicol acetyl transferase (CAT) plasmid to create hCRH-CAT. Transcriptional regulation of the hCRH promoter was measured by transient transfection in primary human synoviocytes. […] Three individual RA and PsA synoviocyte cell lines were transiently transfected with 3 μg -666 /+111 hCRH-CAT reporter plasmid to monitor CRH promoter activity, maintained under normal conditions (Con), or exposed to 10 ng/ml IL-1β, IL-6, TNFα1 μM PGE2, MoCM or 25 μM FOR for 12 h. […] Representative CAT levels produced by transfected cells are illustrated in FIG. 2B.
Synovial tissue was treated for 4 h with 1 mg/ml collagenase (type I; Worthington Biochemical, Freehold, N.J.) in RPMI at 37° C. in 5% CO2. Dissociated cells were plated in RPMI supplemented with 10% fetal calf serum (GibcoBRL, Paisley, UK), penicillin (100 U/ml), streptomycin (100 U/ml) and fungizone (0.25 μg/ml). […] Twenty-four hours before transfection, 1×10^6 synoviocyte cells were plated in 25 cm^2 dishes and allowed to attach. Endotoxin free-DNA ([…] CMV-β-galactosidase or 3 μg -666/+111 hCRH CAT (Murphy and Conneely, 1997) was added to 35 μl lipotaxi reagent (Stratagene, Cambridge, UK) in a volume of 900 μl RPMI (serum free) and incubated at room temperature for 30 min. RPMI (1.5 ml) was added to the transfection mixture, transferred onto the cells and incubated for 6 h at 37° C. in 5% CO2. An equal volume of media was added, and the cells were incubated overnight at 37° C. in 5% CO2. The DNA-lipotaxi containing media was replaced, and the cells were left untreated or treated with 10 ng/ml IL-1β, IL-6, TNFα, 1 μM PGE2 or MoCM and incubated for a further 24 h. Chloramphenicol acetyl transferase (CAT) levels were measured using a CAT ELISA (Boehringer Mannheim, Germany). Protein concentrations were determined by the Bradford assay (BioRad, Richmond, Calif.). For β-galactosidase assays cells were washed with cold phosphate buffered saline (PBS), fixed with cold 0.5% glutaraldehyde and washed twice with PBS before incubation with staining solution (1M MgCl2, 5M NaCL, 0.5M HEPES pH7.3, 30 mM potassium ferricyanide, 30 mM potassium ferrocyanide and 2% 5-bromo-4-chloro-3-indoyl-β-galactopyranoside) for 12 h at 37° C.

The next test relates to NOR1 mRNA. Description: Northern analysis of NOR1 mRNA in primary RA synoviocytes. The note with it: 1 hour, TNFα 10 ng/mL, PGE2 10^-6 M, vs untreated. The format is cell-based, human. The method, then:
The pathological importance of the NURR transcription factors in inflammatory joint disease was further examined by determining the ability of proinflammatory agonists to regulate NOR1 transcript levels in primary synoviocytes. (FIG. 14). Expression levels of NOR1 and NURR1 mRNA increased compared to the untreated synoviocytes upon treatment with TNFα.
Northern analysis of primary RA synoviocytes were untreated (lane 1) or treated for 1 hour with TNFα (lane 2), IL-1β (lane 3), and PGE2 (lane 4). TNFα and IL-1β were used at a concentration of 10 ng/mL and PGE2 was at a concentration of 10^-6 M.
Total RNA was isolated from cultured primary synoviocytes or synovial explants. RNA was quantitated by UV absorption and 10 μg of total RNA were electrophoresed on a standard northern gel and transferred to nylon membrane (BioRad, Richmond, Calif.). NURR1 and NUR77 cDNA probes (Murphy and Conneely, 1997), spanning the amino terminal region to avoid cross-hybridization, were radiolabeled to a high specific activity using [α-^32P] dCTP and a random primer labeling system (Promega, Madison, Wis.). Blots were exposed to film at −80° C. using intensifying screens and autoradiographic intensity was quantitated using an imaging densitometer.

With `CCCCC[C@H](O)/C=C/[C@H]1[C@H](O)CC(=O)[C@@H]1C/C=C\CCCC(=O)O` [PGE2, reference compound], the “CRH mRNA expression, fold stimulation” value in the test with CRH mRNA is listed as 3.85+/−1.5 fold. Also, the “transcriptional activity of the hCRH promoter (CAT), fold” value (“transcriptional activity … fold” below) in the test on human CRH promoter is 28.8+/−1.7 fold. Further, in the test on NOR1 mRNA, the “NOR1 mRNA expression levels” value was “only a moderate increase”.

Regarding IL-1β: pro-inflammatory cytokine, the “CRH mRNA expression, fold stimulation” value in the test on CRH mRNA is 2.3+/−1.0 fold. Besides, the “transcriptional activity … fold” value in the test on human CRH promoter is reported as 17.1+/−3.1 fold.

IL-6: pro-inflammatory cytokine: in the test with CRH mRNA, the “CRH mRNA expression, fold stimulation” value is 1.5+/−1.2 fold. For the same compound, the “transcriptional activity … fold” value in the test with human CRH promoter is reported as 3.2+/−1.9 fold.

For TNFα, the “CRH mRNA expression, fold stimulation” value in the test with CRH mRNA is 3.6+/−2.0 fold. Also, in the test on human CRH promoter, the “transcriptional activity … fold” value is listed as 15.6+/−1.9 fold. Also, the “NOR1 mRNA expression levels” value in the test with NOR1 mRNA was “increased”.
